Test results published in the supplement of paper PMC10307832.

Experiments:
Test in all cases: relative viability (nuclei count vs DMSO), 5 days (fraction); higher = more cells survive
[1] = compound: C1CC1C(=O)NC2=NNC3=C2C=CC(=C3)C4=CC(=CC=C4)C(=O)NC5CC5 [XMD13-2] + C[C@]1(O)C[C@@H](c2nc(-c3ccc4ccc(-c5ccccc5)nc4c3)c3c(N)nccn32)C1 [Linsitinib] (partner 1 µM)
In short: (§1)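 Lung cancer cell lines were pin-tool dosed in 1536-well plates on the day after seeding, with either a lone drug or a fixed anchor-drug dose plus five library-drug doses (not always all listed) in √10 steps. Nuclei were counted on 4× images after 5 days. Relative viability is the ratio of treated-well to vehicle-well nuclei counts, with each value a median of duplicate plates.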

[2] = compound: Cc1ccc(C(=O)Nc2cccc(C(F)(F)F)c2)cc1Nc1cncc(C(N)=O)c1 [ALW-II-49-7] + C[C@]1(O)C[C@@H](c2nc(-c3ccc4ccc(-c5ccccc5)nc4c3)c3c(N)nccn32)C1 [Linsitinib] (partner 1 µM)
In short: as §1

[3] = compound: Cc1ccc(C(=O)Nc2cccc(C(F)(F)F)c2)cc1Nc1cncc(C(N)=O)c1 [ALW-II-49-7] + O=C(c1cc(Cc2n[nH]c(=O)c3ccccc23)ccc1F)N1CCN(C(=O)C2CC2)CC1 [Olaparib] (partner 8 µM)
In short: as §1

[4] = compound: Cc1ccc(C(=O)Nc2cccc(C(F)(F)F)c2)cc1Nc1cncc(C(N)=O)c1 [ALW-II-49-7] + O=C(CCCCCCC(=O)Nc1ccccc1)NO [Vorinostat] (partner 1 µM)
In short: as §1

Cell Line	relative viability ([1]; first compound 0.05 µM)	relative viability ([1]; first compound 0.1581 µM)	relative viability ([1]; first compound 0.5 µM)	relative viability ([1]; first compound 1.581 µM)	relative viability ([1]; first compound 5 µM)	relative viability ([2]; first compound 0.08 µM)	relative viability ([2]; first compound 0.253 µM)	relative viability ([2]; first compound 0.8 µM)	relative viability ([2]; first compound 2.53 µM)	relative viability ([2]; first compound 8 µM)	relative viability ([3]; first compound 0.08 µM)	relative viability ([3]; first compound 0.253 µM)	relative viability ([3]; first compound 0.8 µM)	relative viability ([3]; first compound 2.53 µM)	relative viability ([3]; first compound 8 µM)	relative viability ([4]; first compound 0.08 µM)	relative viability ([4]; first compound 0.253 µM)	relative viability ([4]; first compound 0.8 µM)	relative viability ([4]; first compound 2.53 µM)	relative viability ([4]; first compound 8 µM)
H3255	1.12	1	0.946	0.97	0.94	0.832	0.892	0.94	0.884	0.9	0.516	0.549	0.492	0.537	0.477	0.925	0.804	0.813	0.735	0.686
HARA	0.934	0.931	0.944	0.972	1.07	0.914	0.77	0.929	0.968	1.02	0.556	0.584	0.551	0.626	1.07	0.608	0.597	0.634	0.594	0.58
HCC-15	0.936	0.869	0.903	0.947	0.599	0.963	0.931	0.973	0.971	0.947	0.757	0.689	0.719	0.577	0.648	0.913	0.807	0.916	0.802	0.893
HCC-44	0.683	0.694	0.697	0.704	0.773	0.6	0.658	0.686	0.619	0.839	0.928	1.04	0.995	0.957	0.935	1.14	1.11	1.11	1.12	1.09
HCC-78	0.696	0.587	0.603	0.548	0.461	0.485	0.473	0.609	0.5	0.487	1.02	0.77	0.767	0.625	0.738	0.428	0.358	0.408	0.342	0.485
HCC-366	0.809	0.54	0.749	0.647	0.736	0.68	0.636	0.698	0.682	0.791	0.423	0.333	0.377	0.337	0.301	0.49	0.363	0.258	0.343	0.21
HCC-827	0.873	0.9	0.874	0.9	0.863	0.94	1.06	0.962	0.981	1.08	0.624	0.625	0.59	0.542	0.59	0.9	0.803	0.787	0.813	0.883
HOP-62	1.03	0.971	1	1.09	0.913	0.889	1.13	1.03	0.866	0.813	0.162	0.378	0.595	–	0.172	0.547	0.696	0.588	0.523	0.298
NCI-H522	–	–	–	–	–	–	–	–	–	–	0.764	0.547	0.734	0.635	0.742	0.824	1.04	0.824	0.834	0.94
NCI-H1299	0.982	1.03	1.15	0.997	1.03	1.02	1.05	0.696	0.721	0.423	0.94	0.972	0.988	0.73	0.761	–	–	–	–	–
NCI-H1563	1.22	1.27	1.16	1.12	1.31	1.18	1.18	1.31	1.34	1.22	–	–	–	–	–	–	–	–	–	–
NCI-H1648	–	–	–	–	–	–	–	–	–	–	1.52	0.684	0.656	0.48	0.808	0.346	0.298	0.287	0.327	0.425
NCI-H1650	–	–	–	–	–	–	–	–	–	–	0.71	0.602	0.749	0.905	0.969	0.518	0.656	0.563	0.524	0.576
NCI-H1703	0.637	1.23	0.805	–	0.74	0.564	0.78	0.567	0.277	0.224	0.492	0.398	0.358	0.245	0.245	–	–	–	–	–
NCI-H1792	0.631	0.519	0.586	0.661	0.515	0.402	0.338	0.421	0.321	0.371	0.501	0.384	0.6	0.327	0.342	–	–	–	–	–
NCI-H2170	–	–	–	–	–	–	–	–	–	–	0.76	0.595	0.562	0.535	0.603	0.917	0.921	0.841	0.796	0.867
NCI-H2342	–	–	–	–	–	–	–	–	–	–	0.47	0.436	0.394	0.357	0.396	0.702	0.922	0.744	0.837	0.859
SW 900	–	–	–	–	–	–	–	–	–	–	0.652	0.759	–	0.741	0.931	0.539	0.554	–	0.517	0.289
